Reference: ChEMBL document CHEMBL3621110, “Discovery and Development of the Aryl O-Sulfamate Pharmacophore for Oncology and Women's Health” (J Med Chem, 2015)

Key:
[1] = organism: Rattus norvegicus; experiment: animal or person; type: functional; conditions: Liver, po, 168 h
[2] = target: T1, Steryl-sulfatase (Homo sapiens, UniProt P08842); type: microsomes, Placenta, Microsome
T1 sequence (P08842 whole entry): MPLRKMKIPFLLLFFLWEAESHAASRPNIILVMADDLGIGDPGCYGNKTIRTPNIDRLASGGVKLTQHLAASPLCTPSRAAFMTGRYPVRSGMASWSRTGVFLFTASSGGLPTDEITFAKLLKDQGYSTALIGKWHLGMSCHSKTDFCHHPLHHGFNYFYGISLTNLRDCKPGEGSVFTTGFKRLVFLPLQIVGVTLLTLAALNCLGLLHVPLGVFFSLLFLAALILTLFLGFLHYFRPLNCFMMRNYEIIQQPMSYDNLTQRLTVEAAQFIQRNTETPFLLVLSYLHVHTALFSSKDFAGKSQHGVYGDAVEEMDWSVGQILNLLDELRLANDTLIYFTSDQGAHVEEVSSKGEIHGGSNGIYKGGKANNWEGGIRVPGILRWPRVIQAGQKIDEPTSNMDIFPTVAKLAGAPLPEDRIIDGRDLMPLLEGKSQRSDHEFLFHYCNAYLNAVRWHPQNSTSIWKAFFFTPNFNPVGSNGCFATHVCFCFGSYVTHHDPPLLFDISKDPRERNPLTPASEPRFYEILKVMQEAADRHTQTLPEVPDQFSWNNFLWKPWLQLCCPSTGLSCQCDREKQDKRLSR

[3] = organism: Rattus norvegicus; experiment: animal or person; type: functional; conditions: Liver, po, 120 h
[4] = tested on: MCF7; experiment: cells; type: functional; conditions: Homo sapiens
[5] = tested on: LNCaP; experiment: cells; type: functional, cell-based; conditions: Homo sapiens
[6] = cells; type: functional, cell-based; conditions: Homo sapiens, PC-3
[7] = tested on: A2780cisR; experiment: cells; type: functional, cell-based; conditions: Homo sapiens
[8] = cells; type: functional, cell-based; conditions: Homo sapiens, A2780 ADR
[9] = tested on: MDA-MB-231; experiment: cells; type: functional; conditions: Homo sapiens
[10] = target: T1, Steryl-sulfatase; parameters: species or system Placenta, Microsome
[11] = target: T2, Cytochrome P450 1A2 (Homo sapiens, UniProt P05177)
T2 sequence (P05177 whole entry): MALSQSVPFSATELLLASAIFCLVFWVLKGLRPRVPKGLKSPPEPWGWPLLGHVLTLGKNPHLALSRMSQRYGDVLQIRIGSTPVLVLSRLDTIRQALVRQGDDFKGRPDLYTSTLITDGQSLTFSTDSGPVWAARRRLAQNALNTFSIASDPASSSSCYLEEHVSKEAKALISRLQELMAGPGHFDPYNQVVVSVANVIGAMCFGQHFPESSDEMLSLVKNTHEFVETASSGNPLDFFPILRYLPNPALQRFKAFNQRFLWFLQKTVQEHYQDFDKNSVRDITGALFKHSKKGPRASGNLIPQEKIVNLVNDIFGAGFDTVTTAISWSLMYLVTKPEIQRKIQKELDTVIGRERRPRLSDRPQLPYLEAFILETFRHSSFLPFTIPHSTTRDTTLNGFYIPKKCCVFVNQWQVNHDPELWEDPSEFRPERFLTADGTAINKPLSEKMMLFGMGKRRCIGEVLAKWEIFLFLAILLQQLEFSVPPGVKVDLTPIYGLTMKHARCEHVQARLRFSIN

[12] = target: T1, Steryl-sulfatase; type: cell-based, MCF7
[13] = tested on: DU-145; experiment: cells; type: functional; conditions: Homo sapiens
[14] = organism: Rattus norvegicus; experiment: animal or person; type: functional; conditions: Wistar, po, 3 h
[15] = organism: Rattus norvegicus; experiment: animal or person; type: functional; conditions: Wistar, po, 3 h; remark: listed apart in the source
[16] = target: T1, Steryl-sulfatase; type: cell-based, JEG-3
[17] = target: T3, Estrogen receptor (Homo sapiens, UniProt P03372)
T3 sequence (P03372 whole entry): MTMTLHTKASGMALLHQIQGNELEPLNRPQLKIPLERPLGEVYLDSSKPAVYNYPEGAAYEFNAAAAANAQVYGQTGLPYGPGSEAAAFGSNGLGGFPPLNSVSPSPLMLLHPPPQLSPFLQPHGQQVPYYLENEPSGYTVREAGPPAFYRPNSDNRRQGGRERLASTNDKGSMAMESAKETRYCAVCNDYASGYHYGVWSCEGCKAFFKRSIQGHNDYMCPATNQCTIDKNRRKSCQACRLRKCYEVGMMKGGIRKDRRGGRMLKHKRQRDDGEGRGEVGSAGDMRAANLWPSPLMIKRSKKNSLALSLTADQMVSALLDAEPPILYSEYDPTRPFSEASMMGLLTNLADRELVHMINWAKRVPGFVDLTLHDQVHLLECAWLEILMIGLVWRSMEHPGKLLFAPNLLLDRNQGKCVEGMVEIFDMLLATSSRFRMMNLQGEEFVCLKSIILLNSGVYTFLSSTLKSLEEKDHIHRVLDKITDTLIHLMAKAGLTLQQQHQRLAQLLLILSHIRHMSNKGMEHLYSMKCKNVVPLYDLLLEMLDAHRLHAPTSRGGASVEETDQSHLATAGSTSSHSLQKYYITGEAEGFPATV

[18] = tested on: MCF7; experiment: cells; type: functional; conditions: Homo sapiens; remark: listed apart in the source
[19] = tested on: MCF7; experiment: cells; type: functional, cell-based; conditions: Homo sapiens
[20] = tested on: MDA-MB-231; experiment: cells; type: functional, cell-based; conditions: Homo sapiens
[21] = tested on: MCF7; experiment: animal or person; type: functional, Homo sapiens; conditions: Mus musculus, MCF7, po
[22] = organism: Homo sapiens; type: functional
[23] = organism: Homo sapiens; type: functional; remark: listed apart in the source

Cc1cc(=O)oc2cc(OS(N)(=O)=O)ccc12
inhibition in vivo at 10 mg/kg/day [1]: 85%

C[C@]12CC[C@@H]3c4ccc(OS(N)(=O)=O)cc4CC[C@H]3[C@@H]1CC(=O)N(Cc1cccnc1)C2=O
IC50 [2]: 1 nM
inhibition in vivo at 10 mg/kg/day [3]: 99%

CCc1cc2c(cc1OS(N)(=O)=O)CC[C@@H]1[C@@H]2CC[C@]2(C)C(=O)CC[C@@H]12
GI50 [4]: 340 nM
IC50 [5]: 100 nM
IC50 [6]: 100 nM
IC50 [7]: 100 nM
IC50 [8]: 100 nM

C[C@]12CC[C@@H]3c4ccc(OS(N)(=O)=O)c(Br)c4CC[C@H]3[C@@H]1CCC2=O
GI50 [4]: 42 nM

COc1cccc(CN2Cc3cc(OC)c(OS(N)(=O)=O)cc3CC2C)c1 (centres undefined)
GI50 [9]: 234 nM

NS(=O)(=O)Oc1ccc2c3c(c(=O)oc2c1)CCC3
IC50 [10]: 200 nM

NS(=O)(=O)Oc1ccc2c3c(c(=O)oc2c1)CCCC3
IC50 [10]: 70 nM

NS(=O)(=O)Oc1ccc2c3c(c(=O)oc2c1)CCCCCC3
IC50 [10]: 30 nM

NS(=O)(=O)Oc1ccc2c3c(c(=O)oc2c1)CCCCCCC3
IC50 [10]: 2.4 nM

NS(=O)(=O)Oc1ccc2c3c(c(=O)oc2c1)CCCCCCCC3
IC50 [10]: 1 nM

NS(=O)(=O)Oc1ccc2c3c(c(=O)oc2c1)CCCCCCCCCC3
IC50 [10]: 60 nM

NS(=O)(=O)Oc1ccc2c3c(c(=O)oc2c1)CCCCCCCCCCC3
IC50 [10]: 75 nM

NS(=O)(=O)Oc1ccc2c3c(c(=O)oc2c1)CCCCCCCCCCCCC3
IC50 [10]: 370 nM

O=c1oc2cc(O)ccc2c2c1CCCCC2
Ki [11]: 770 nM

C[C@]12CC[C@@H]3c4ccc(OS(N)(=O)=O)cc4CC[C@H]3[C@@H]1CC(=O)NC2=O
IC50 [2]: 20 nM

CN1C(=O)C[C@H]2[C@@H]3CCc4cc(OS(N)(=O)=O)ccc4[C@H]3CC[C@]2(C)C1=O
IC50 [2]: 12 nM

CCN1C(=O)C[C@H]2[C@@H]3CCc4cc(OS(N)(=O)=O)ccc4[C@H]3CC[C@]2(C)C1=O
IC50 [2]: 52 nM

CCCCN1C(=O)C[C@H]2[C@@H]3CCc4cc(OS(N)(=O)=O)ccc4[C@H]3CC[C@]2(C)C1=O
IC50 [2]: 382 nM

CCCCCCN1C(=O)C[C@H]2[C@@H]3CCc4cc(OS(N)(=O)=O)ccc4[C@H]3CC[C@]2(C)C1=O
IC50 [2]: 288 nM

CC(C)(C)c1ccc(CN2C(=O)C[C@H]3[C@@H]4CCc5cc(OS(N)(=O)=O)ccc5[C@H]4CC[C@]3(C)C2=O)cc1
IC50 [2]: 23 nM

C[C@]12CC[C@@H]3c4ccc(OS(N)(=O)=O)cc4CC[C@H]3[C@@H]1CC(=O)N(Cc1ccccc1)C2=O
IC50 [2]: 3 nM

C=CCN1C(=O)C[C@H]2[C@@H]3CCc4cc(OS(N)(=O)=O)ccc4[C@H]3CC[C@]2(C)C1=O
IC50 [2]: 75 nM

CC/C(=C(/CC)c1ccc(OS(N)(=O)=O)cc1)c1ccc(OS(N)(=O)=O)cc1
IC50 [12]: 10 nM

CCc1cc2c(cc1OS(N)(=O)=O)CCN(Cc1cc(OC)c(OC)c(OC)c1)C2
GI50 [13]: 41 nM
GI50 [9]: 52 nM

CCC1Cc2cc(OS(N)(=O)=O)c(OC)cc2CN1Cc1cccc(OC)c1 (centres undefined)
GI50 [13]: 286 nM
GI50 [9]: 281 nM

COc1ccc(F)c(CN2Cc3cc(OC)c(OS(N)(=O)=O)cc3CC2C)c1 (centres undefined)
GI50 [13]: 299 nM
GI50 [9]: 269 nM

COc1ccc(OC)c(CN2Cc3cc(OC)c(OS(N)(=O)=O)cc3CC2C)c1 (centres undefined)
GI50 [13]: 189 nM
GI50 [9]: 160 nM

COc1cc2c(cc1OS(N)(=O)=O)CCN(Cc1cc(OC)c(OC)c(OC)c1)C2C (centres undefined)
GI50 [13]: 360 nM
GI50 [9]: 300 nM

COc1cc2c(cc1OS(N)(=O)=O)CCN(Cc1cc(Cl)c(OC)c(OC)c1)C2
GI50 [13]: 40 nM
GI50 [9]: 40 nM

COc1cc2c(cc1OS(N)(=O)=O)CCN(Cc1cc(Br)c(OC)c(OC)c1)C2
GI50 [13]: 30 nM
GI50 [9]: 30 nM

CCc1cc2c(cc1OS(N)(=O)=O)CCN(Cc1cc(Br)c(OC)c(OC)c1)C2
GI50 [13]: 20 nM
GI50 [9]: 30 nM

CCOc1c(OC)cc(CN2CCc3cc(OS(N)(=O)=O)c(OC)cc3C2)cc1OC
GI50 [13]: 100 nM
GI50 [9]: 70 nM

N#Cc1ccc(N(CCSc2ccc(OS(N)(=O)=O)c(Cl)c2)n2cnnc2)cc1
inhibition in vivo at 10 mg/kg [14]: 92%
inhibition in vivo at 10 mg/kg [15]: 98%
IC50 [16]: 1200 nM

N#Cc1ccc(N(Cc2ccc3cc(OS(N)(=O)=O)ccc3c2)n2cnnc2)cc1
IC50 [16]: 367 nM

N#Cc1ccc(N(Cc2ccc3c(Cl)c(OS(N)(=O)=O)ccc3c2)n2cnnc2)cc1
inhibition in vivo at 10 mg/kg [14]: 93%
inhibition in vivo at 10 mg/kg [15]: 93%
IC50 [16]: 26 nM

N#Cc1ccc(N(Cc2ccc3c(Br)c(OS(N)(=O)=O)ccc3c2)n2cnnc2)cc1
IC50 [16]: 205 nM

Cn1nnc2ccc(C(c3ccc(OS(N)(=O)=O)cc3)n3cncn3)cc21 (centres undefined)
IC50 [16]: > 10000 nM

CCN(Cc1ccc(C(=O)N2CCc3ccc(O)cc3C2)cc1)Cc1ccccn1
IC50 [17]: 24600 nM

COc1cc2c(cc1OS(N)(=O)=O)CC[C@@H]1[C@@H]2CC[C@]2(C)C(=O)CC[C@@H]12
IC50 [10]: 30 nM
GI50 [4]: 300 nM
inhibition at 1 µM [18]: 52%
IC50 [5]: 100 nM
IC50 [6]: 100 nM
IC50 [7]: 100 nM
IC50 [8]: 100 nM

COc1cc2c(cc1OS(N)(=O)=O)CC[C@@H]1[C@@H]2CC[C@]2(C)[C@@H](CC#N)CC[C@@H]12
IC50 [19]: 70 nM
IC50 [20]: 80 nM
inhibition in vivo at 20 mg/kg [21]: 22%

N#Cc1ccc(N(Cc2ccc(OS(N)(=O)=O)cc2)n2cnnc2)cc1
inhibition in vivo at 10 mg/kg [15]: 39%

C[C@]12CC[C@@H]3c4ccc(OS(N)(=O)=O)cc4CC[C@H]3[C@@H]1CC[C@@H]2O [E2MATE]
inhibition (INH) [22]: 91%
inhibition (INH) [23]: 96%
